Reference: patent publication US8785463B2, “GPR 119 agonists” (Cadila Healthcare Limited, priority 2010, dated 2014)

Biological target: T1, human GPR 119 receptor (Homo sapiens, UniProt Q8TDV5)
T1 construct: expressed in transfected cells
T1 sequence (Q8TDV5 1-335): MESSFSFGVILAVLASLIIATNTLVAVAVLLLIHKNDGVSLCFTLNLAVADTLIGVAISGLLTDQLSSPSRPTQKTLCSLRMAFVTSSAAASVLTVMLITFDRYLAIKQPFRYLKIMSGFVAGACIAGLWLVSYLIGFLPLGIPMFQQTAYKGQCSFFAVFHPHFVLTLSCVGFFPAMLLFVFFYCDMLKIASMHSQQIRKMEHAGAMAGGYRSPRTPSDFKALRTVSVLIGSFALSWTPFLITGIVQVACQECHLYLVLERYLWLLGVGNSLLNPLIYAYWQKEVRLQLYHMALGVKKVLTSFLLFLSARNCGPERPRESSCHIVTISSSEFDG
Assay: cAMP assay in stable cell line expressing recombinant human GPR 119 receptor
Assay type: cell-based
Conditions: DMSO = 1
From the text: A stable cell line expressing recombinant human GPR 119 receptor was established and used to investigate the efficacy of the compounds of the invention based on the intracellular levels of cyclic AMP (cAMP) using commercially available cAMP kits.

CC(C)(C)OC(=O)N1CCC(Oc2cc(Oc3ccc(/C=C4\SC(=O)N(S(C)(=O)=O)C4=O)cc3)ncn2)CC1 [Example 24, (Z)-tert-Butyl 4-((6-(4-((3-(methylsulfonyl)-2,4-dioxothiazolidin-5-ylidene)methyl)phenoxy)pyrimidin-4-yl)oxy)piperidine-1-carboxylate]
Fold increase in cyclic AMP with respective to DMSO (10 nM compound): 1.07 fold | Fold increase in cyclic AMP with respective to DMSO (100 nM compound): 1.11 fold | Fold increase in cyclic AMP with respective to DMSO (1 uM compound): 2.27 fold

Cc1c(Oc2cccc(/C=C3\SC(=O)NC3=O)c2)ncnc1OC1CCN(c2nc(C(C)C)no2)CC1 [Example 25, (Z)-5-(3-((6-((1-(3-Isopropyl-1,2,4-oxadiazol-5-yl)piperidin-4-yl)oxy)-5-methylpyrimidin-4-yl)oxy)benzylidene)thiazolidine-2,4-dione]
Fold increase in cyclic AMP with respective to DMSO (10 nM compound): 3.32 fold | Fold increase in cyclic AMP with respective to DMSO (100 nM compound): 5.81 fold | Fold increase in cyclic AMP with respective to DMSO (1 uM compound): 1.39 fold

CCc1cnc(N2CCC(Oc3ncnc(Oc4cccc(/C=C5\SC(=O)NC5=O)c4)c3C)CC2)nc1 [Example 26, (Z)-5-(3-((6-((1-(5-Ethylpyrimidin-2-yl)piperidin-4-yl)oxy)-5-methylpyrimidin-4-yl)oxy)benzylidene)thiazolidine-2,4-dione]
Fold increase in cyclic AMP with respective to DMSO (10 nM compound): 4.02 fold | Fold increase in cyclic AMP with respective to DMSO (100 nM compound): 7.17 fold | Fold increase in cyclic AMP with respective to DMSO (1 uM compound): 9.34 fold

Cc1c(Oc2cccc(/C=C3\SC(=O)NC3=O)c2)ncnc1OC1CCN(Cc2ccccc2)CC1 [Example 27, (Z)-5-(3-((6-((1-Benzylpiperidin-4-yl)oxy)-5-methylpyrimidin-4-yl)oxy)benzylidene)thiazolidine-2,4-dione]
Fold increase in cyclic AMP with respective to DMSO (10 nM compound): 1.38 fold | Fold increase in cyclic AMP with respective to DMSO (100 nM compound): 2.89 fold | Fold increase in cyclic AMP with respective to DMSO (1 uM compound): 4.79 fold

Cc1c(Oc2cccc(/C=C3\SC(=O)NC3=O)c2)ncnc1OC1CCN(c2ncccn2)CC1 [Example 28, (Z)-5-(3-((5-Methyl-6-((1-(pyrimidin-2-yl)piperidin-4-yl)oxy)pyrimidin-4-yl)oxy)benzylidene)thiazolidine-2,4-dione]
Fold increase in cyclic AMP with respective to DMSO (10 nM compound): 1.32 fold | Fold increase in cyclic AMP with respective to DMSO (100 nM compound): 2.86 fold | Fold increase in cyclic AMP with respective to DMSO (1 uM compound): 4.56 fold

O=C1NC(=O)/C(=C/c2cccc(Oc3cc(OC4CCN(C(=O)OCc5ccccc5)CC4)ncn3)c2)S1 [Example 29, (Z)-Benzyl 4-((6-(3-((2,4-dioxothiazolidin-5-ylidene)methy 1)phenoxy)pyrimidin-4-yl)oxy)piperidine-1-carboxylate]
Fold increase in cyclic AMP with respective to DMSO (10 nM compound): 2.09 fold | Fold increase in cyclic AMP with respective to DMSO (100 nM compound): 3.66 fold | Fold increase in cyclic AMP with respective to DMSO (1 uM compound): 8.17 fold

O=C1NC(=O)/C(=C/c2ccc(Oc3cc(OC4CCN(C(=O)OCc5ccccc5)CC4)ncn3)cc2)S1 [Example 30, (Z)-Benzyl 4-((6-(4-((2,4-dioxothiazolidin-5-ylidene)methyl)phenoxy)pyrimidin-4-yl)oxy)piperidine-1-carboxylate]
Fold increase in cyclic AMP with respective to DMSO (10 nM compound): 2.29 fold | Fold increase in cyclic AMP with respective to DMSO (100 nM compound): 3.59 fold | Fold increase in cyclic AMP with respective to DMSO (1 uM compound): 7.4 fold

CCN1C(=O)S/C(=C\c2ccc(Oc3cc(OC4CCN(C(=O)OC(C)(C)C)CC4)ncn3)cc2)C1=O [Example 31, (Z)-tert-Butyl 4-((6-(4-((3-ethyl-2,4-doxothiazolidin-5-ylidene)methyl)phenoxy)pyrimidin-4-yl)oxy)piperidine-1-carboxylate]
Fold increase in cyclic AMP with respective to DMSO (10 nM compound): 1.06 fold | Fold increase in cyclic AMP with respective to DMSO (100 nM compound): 2.27 fold | Fold increase in cyclic AMP with respective to DMSO (1 uM compound): 3.66 fold

COC(=O)N1CCC(Oc2ncnc(Oc3cccc(/C=C4\SC(=O)N(C(C)C)C4=O)c3)c2C)CC1 [Example 32, (Z)-Methyl 4-((6-(3-((3-isopropyl-2,4-dioxothiazolidin-5-ylidene)methyl)phenoxy)-5-methylpyrimidin-4-yl)oxy)piperidine-1-carboxylate]
Fold increase in cyclic AMP with respective to DMSO (10 nM compound): 0.77 fold | Fold increase in cyclic AMP with respective to DMSO (100 nM compound): 0.94 fold | Fold increase in cyclic AMP with respective to DMSO (1 uM compound): 1.45 fold

CC(C)COC(=O)N1CCC(Oc2cc(Oc3cccc(/C=C4\SC(=O)NC4=O)c3)ncn2)CC1 [Example 33, (Z)-Isobutyl 4-((6-(3-((2,4-dioxothiazolidin-5-ylidene)methyl)phenoxy)pyrimidin-4-yl)oxy)piperidine-1-carboxylate]
Fold increase in cyclic AMP with respective to DMSO (10 nM compound): 0.83 fold | Fold increase in cyclic AMP with respective to DMSO (100 nM compound): 1.36 fold | Fold increase in cyclic AMP with respective to DMSO (1 uM compound): 2.72 fold

CC(C)COC(=O)N1CCC(Oc2cc(Oc3ccc(/C=C4\SC(=O)NC4=O)cc3)ncn2)CC1 [Example 34, (Z)-Isobutyl 4-((6-(4-((2,4-dioxothiazolidin-5-ylidene)methyl)phenoxy)pyrimidin-4-yl)oxy)piperidine-1-carboxylate]
Fold increase in cyclic AMP with respective to DMSO (10 nM compound): 0.73 fold | Fold increase in cyclic AMP with respective to DMSO (100 nM compound): 1.09 fold | Fold increase in cyclic AMP with respective to DMSO (1 uM compound): 2.22 fold

COC(=O)N1CCC(Oc2cc(Oc3ccc(/C=C4\SC(=O)NC4=O)cc3)ncn2)CC1 [Example 35, (Z)-Methyl 4-((6-(4-((2,4-dioxothiazolidin-5-ylidene)methyl)phenoxy)pyrimidin-4-yl)oxy)piperidine-1-carboxylate]
Fold increase in cyclic AMP with respective to DMSO (10 nM compound): 0.56 fold | Fold increase in cyclic AMP with respective to DMSO (100 nM compound): 0.57 fold | Fold increase in cyclic AMP with respective to DMSO (1 uM compound): 0.96 fold

COC(=O)N1CCC(Oc2cc(Oc3cccc(/C=C4\SC(=O)NC4=O)c3)ncn2)CC1 [Example 36, (Z)-Methyl 4-((6-(3-((2,4-dioxothiazolidin-5-ylidene)methyl)phenoxy)pyrimidin-4-yl)oxy)piperidine-1-carboxylate]
Fold increase in cyclic AMP with respective to DMSO (10 nM compound): 0.80 fold | Fold increase in cyclic AMP with respective to DMSO (100 nM compound): 1.38 fold | Fold increase in cyclic AMP with respective to DMSO (1 uM compound): 2.19 fold

O=C1NC(=O)/C(=C/c2ccc(Oc3cc(OC4CCN(Cc5ccccc5)CC4)ncn3)cc2)S1 [Example 37, (Z)-5-(4-((6-((1-Benzylpiperidin-4-yl)oxy)pyrimidin-4-yl)oxy)benzylidene)thiazolidine-2,4-dione]
Fold increase in cyclic AMP with respective to DMSO (10 nM compound): 0.97 fold | Fold increase in cyclic AMP with respective to DMSO (100 nM compound): 1.47 fold | Fold increase in cyclic AMP with respective to DMSO (1 uM compound): 2.07 fold

Cc1c(Oc2ccc(/C=C3\SC(=O)NC3=O)cc2)ncnc1OC1CCN(Cc2ccccc2)CC1 [Example 38, (Z)-5-(4-((6-((1-Benzylpiperidin-4-yl)oxy)-5-methylpyrimidin-4-yl)oxy)benzylidene)thiazolidine-2,4-dione]
Fold increase in cyclic AMP with respective to DMSO (10 nM compound): 0.34 fold | Fold increase in cyclic AMP with respective to DMSO (100 nM compound): 0.67 fold | Fold increase in cyclic AMP with respective to DMSO (1 uM compound): 1.64 fold

O=C1NC(=O)/C(=C/c2cccc(Oc3cc(OC4CCN(Cc5ccccc5)CC4)ncn3)c2)S1 [Example 39, (Z)-5-(3-((6-((1-Benzylpiperidin-4-yl)oxy)pyrimidin-4-yl)oxy)benzylidene)thiazolidine-2,4-dione]
Fold increase in cyclic AMP with respective to DMSO (10 nM compound): 0.85 fold | Fold increase in cyclic AMP with respective to DMSO (100 nM compound): 1.38 fold | Fold increase in cyclic AMP with respective to DMSO (1 uM compound): 2.20 fold

COc1cc(/C=C2\SC(=O)NC2=O)ccc1Oc1cc(OC2CCN(C(=O)OC(C)(C)C)CC2)ncn1 [Example 40, (Z)-tert-Butyl 4-((6-(4-((2,4-dioxothiazolidin-5-ylidene)methyl)-2-methoxyphenoxy)pyrimidin-4-yl)oxy)piperidine-1-carboxylate]
Fold increase in cyclic AMP with respective to DMSO (10 nM compound): 0.87 fold | Fold increase in cyclic AMP with respective to DMSO (100 nM compound): 1.21 fold | Fold increase in cyclic AMP with respective to DMSO (1 uM compound): 1.66 fold

CCc1cnc(N2CCC(Oc3cc(Oc4ccc(/C=C5\SC(=O)NC5=O)cc4)ncn3)CC2)nc1 [Example 41, (Z)-5-(4-((6-((1-(5-Ethylpyrimidin-2-yl)piperidin-4-yl)oxy)pyrimidin-4-yl)oxy)benzylidene)thiazolidine-2,4-dione]
Fold increase in cyclic AMP with respective to DMSO (10 nM compound): 1.00 fold | Fold increase in cyclic AMP with respective to DMSO (100 nM compound): 1.58 fold | Fold increase in cyclic AMP with respective to DMSO (1 uM compound): 3.53 fold

O=C1NC(=O)/C(=C/c2cccc(Oc3cc(OC4CCN(c5ncccn5)CC4)ncn3)c2)S1 [Example 42, (Z)-5-(3-((6-((1-(Pyrimidin-2-yl)piperidin-4-yl)oxy)pyrimidin-4-yl)oxy)benzylidene)thiazolidine-2,4-dione]
Fold increase in cyclic AMP with respective to DMSO (10 nM compound): 0.65 fold | Fold increase in cyclic AMP with respective to DMSO (100 nM compound): 1.27 fold | Fold increase in cyclic AMP with respective to DMSO (1 uM compound): 3.10 fold

O=C1NC(=O)/C(=C/c2ccc(Oc3cc(OC4CCN(c5ncccn5)CC4)ncn3)cc2)S1 [Example 43, (Z)-5-(4-((6-((1-(Pyrimidin-2-yl)piperidin-4-yl)oxy)pyrimidin-4-yl)oxy)benzylidene)thiazolidine-2,4-dione]
Fold increase in cyclic AMP with respective to DMSO (10 nM compound): 0.94 fold | Fold increase in cyclic AMP with respective to DMSO (100 nM compound): 1.27 fold | Fold increase in cyclic AMP with respective to DMSO (1 uM compound): 1.98 fold

CCOC(=O)CN1C(=O)S/C(=C\c2cccc(Oc3ncnc(OC4CCN(C(=O)OC(C)(C)C)CC4)c3C)c2)C1=O [Example 45, (Z)-tert-Butyl 4-((6-(3-((3-(2-ethoxy-2-oxoethyl)-2,4-dioxothiazolidin-5-ylidene)methyl)phenoxy)-5-methylpyrimidin-4-yl)oxy)piperidine-1-carboxylate]
Fold increase in cyclic AMP with respective to DMSO (10 nM compound): 1.05 fold | Fold increase in cyclic AMP with respective to DMSO (100 nM compound): 1.33 fold | Fold increase in cyclic AMP with respective to DMSO (1 uM compound): 2.88 fold
